{
  "source": "patent US8143297B2",
  "about": "“Heterocyclic derivatives as modulators of ion channels” (Vertex Pharmaceuticals Incorporated, priority 2008, dated 2012)",
  "origin": "cited, not measured here",
  "details_in_all_cases": "read-out: TTX IC50",
  "key": {"NaV1.2": {"target": "NaV1.2 (Homo sapiens, UniProt Q99250)"}, "NaV1.8": {"target": "NaV1.8 (Homo sapiens, UniProt Q9Y5Y9)"}, "NaV1.9": {"target": "NaV1.9 (Homo sapiens, UniProt Q9UI33)", "sequence (Q9UI33 whole entry, looked up)": "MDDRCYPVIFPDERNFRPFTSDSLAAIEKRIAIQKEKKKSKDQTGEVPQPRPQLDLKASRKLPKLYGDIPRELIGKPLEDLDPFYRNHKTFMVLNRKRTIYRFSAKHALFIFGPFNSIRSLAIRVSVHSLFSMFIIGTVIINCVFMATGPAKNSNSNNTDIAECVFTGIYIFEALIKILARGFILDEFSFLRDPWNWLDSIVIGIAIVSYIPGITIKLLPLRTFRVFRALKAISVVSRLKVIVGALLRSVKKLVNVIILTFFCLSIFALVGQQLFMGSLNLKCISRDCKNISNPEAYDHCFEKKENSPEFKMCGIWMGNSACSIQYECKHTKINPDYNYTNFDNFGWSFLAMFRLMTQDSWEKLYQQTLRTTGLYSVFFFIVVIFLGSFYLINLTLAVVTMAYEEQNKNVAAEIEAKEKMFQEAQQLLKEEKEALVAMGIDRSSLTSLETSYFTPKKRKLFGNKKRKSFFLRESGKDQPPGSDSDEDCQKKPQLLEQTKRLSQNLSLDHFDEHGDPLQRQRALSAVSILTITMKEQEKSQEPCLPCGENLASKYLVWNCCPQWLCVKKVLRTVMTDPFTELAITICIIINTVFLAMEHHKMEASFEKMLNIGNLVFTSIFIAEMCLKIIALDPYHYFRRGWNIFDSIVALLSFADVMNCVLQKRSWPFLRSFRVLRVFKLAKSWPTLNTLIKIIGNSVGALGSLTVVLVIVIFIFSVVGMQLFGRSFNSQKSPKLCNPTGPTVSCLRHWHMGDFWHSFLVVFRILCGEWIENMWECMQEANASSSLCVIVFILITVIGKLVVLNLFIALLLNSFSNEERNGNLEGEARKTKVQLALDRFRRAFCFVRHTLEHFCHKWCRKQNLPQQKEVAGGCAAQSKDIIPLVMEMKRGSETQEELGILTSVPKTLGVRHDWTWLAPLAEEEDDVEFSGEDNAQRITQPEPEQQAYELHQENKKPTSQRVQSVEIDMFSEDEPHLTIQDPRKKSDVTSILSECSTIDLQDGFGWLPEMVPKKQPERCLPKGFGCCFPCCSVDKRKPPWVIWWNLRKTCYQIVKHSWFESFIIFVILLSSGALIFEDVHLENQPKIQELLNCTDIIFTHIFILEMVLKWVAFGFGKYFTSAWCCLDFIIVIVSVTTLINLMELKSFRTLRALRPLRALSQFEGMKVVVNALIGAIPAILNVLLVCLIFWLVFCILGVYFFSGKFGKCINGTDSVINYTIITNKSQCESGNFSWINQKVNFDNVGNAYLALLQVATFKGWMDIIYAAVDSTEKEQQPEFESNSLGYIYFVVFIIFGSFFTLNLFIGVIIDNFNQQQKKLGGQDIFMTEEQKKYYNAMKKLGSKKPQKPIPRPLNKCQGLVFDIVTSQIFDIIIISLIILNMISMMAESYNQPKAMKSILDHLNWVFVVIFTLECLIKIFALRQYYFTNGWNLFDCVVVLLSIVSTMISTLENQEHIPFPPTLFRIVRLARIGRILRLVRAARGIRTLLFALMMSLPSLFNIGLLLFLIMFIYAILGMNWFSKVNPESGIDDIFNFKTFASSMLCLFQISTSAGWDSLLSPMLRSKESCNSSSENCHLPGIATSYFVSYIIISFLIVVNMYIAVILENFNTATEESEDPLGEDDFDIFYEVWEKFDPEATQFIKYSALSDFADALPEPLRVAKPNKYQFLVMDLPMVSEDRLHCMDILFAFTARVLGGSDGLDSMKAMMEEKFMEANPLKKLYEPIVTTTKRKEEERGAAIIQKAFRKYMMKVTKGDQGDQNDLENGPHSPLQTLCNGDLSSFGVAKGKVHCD"}, "NaV1.6": {"target": "NaV1.6 (Homo sapiens, UniProt Q9UQD0)", "sequence (Q9UQD0 whole entry, looked up)": "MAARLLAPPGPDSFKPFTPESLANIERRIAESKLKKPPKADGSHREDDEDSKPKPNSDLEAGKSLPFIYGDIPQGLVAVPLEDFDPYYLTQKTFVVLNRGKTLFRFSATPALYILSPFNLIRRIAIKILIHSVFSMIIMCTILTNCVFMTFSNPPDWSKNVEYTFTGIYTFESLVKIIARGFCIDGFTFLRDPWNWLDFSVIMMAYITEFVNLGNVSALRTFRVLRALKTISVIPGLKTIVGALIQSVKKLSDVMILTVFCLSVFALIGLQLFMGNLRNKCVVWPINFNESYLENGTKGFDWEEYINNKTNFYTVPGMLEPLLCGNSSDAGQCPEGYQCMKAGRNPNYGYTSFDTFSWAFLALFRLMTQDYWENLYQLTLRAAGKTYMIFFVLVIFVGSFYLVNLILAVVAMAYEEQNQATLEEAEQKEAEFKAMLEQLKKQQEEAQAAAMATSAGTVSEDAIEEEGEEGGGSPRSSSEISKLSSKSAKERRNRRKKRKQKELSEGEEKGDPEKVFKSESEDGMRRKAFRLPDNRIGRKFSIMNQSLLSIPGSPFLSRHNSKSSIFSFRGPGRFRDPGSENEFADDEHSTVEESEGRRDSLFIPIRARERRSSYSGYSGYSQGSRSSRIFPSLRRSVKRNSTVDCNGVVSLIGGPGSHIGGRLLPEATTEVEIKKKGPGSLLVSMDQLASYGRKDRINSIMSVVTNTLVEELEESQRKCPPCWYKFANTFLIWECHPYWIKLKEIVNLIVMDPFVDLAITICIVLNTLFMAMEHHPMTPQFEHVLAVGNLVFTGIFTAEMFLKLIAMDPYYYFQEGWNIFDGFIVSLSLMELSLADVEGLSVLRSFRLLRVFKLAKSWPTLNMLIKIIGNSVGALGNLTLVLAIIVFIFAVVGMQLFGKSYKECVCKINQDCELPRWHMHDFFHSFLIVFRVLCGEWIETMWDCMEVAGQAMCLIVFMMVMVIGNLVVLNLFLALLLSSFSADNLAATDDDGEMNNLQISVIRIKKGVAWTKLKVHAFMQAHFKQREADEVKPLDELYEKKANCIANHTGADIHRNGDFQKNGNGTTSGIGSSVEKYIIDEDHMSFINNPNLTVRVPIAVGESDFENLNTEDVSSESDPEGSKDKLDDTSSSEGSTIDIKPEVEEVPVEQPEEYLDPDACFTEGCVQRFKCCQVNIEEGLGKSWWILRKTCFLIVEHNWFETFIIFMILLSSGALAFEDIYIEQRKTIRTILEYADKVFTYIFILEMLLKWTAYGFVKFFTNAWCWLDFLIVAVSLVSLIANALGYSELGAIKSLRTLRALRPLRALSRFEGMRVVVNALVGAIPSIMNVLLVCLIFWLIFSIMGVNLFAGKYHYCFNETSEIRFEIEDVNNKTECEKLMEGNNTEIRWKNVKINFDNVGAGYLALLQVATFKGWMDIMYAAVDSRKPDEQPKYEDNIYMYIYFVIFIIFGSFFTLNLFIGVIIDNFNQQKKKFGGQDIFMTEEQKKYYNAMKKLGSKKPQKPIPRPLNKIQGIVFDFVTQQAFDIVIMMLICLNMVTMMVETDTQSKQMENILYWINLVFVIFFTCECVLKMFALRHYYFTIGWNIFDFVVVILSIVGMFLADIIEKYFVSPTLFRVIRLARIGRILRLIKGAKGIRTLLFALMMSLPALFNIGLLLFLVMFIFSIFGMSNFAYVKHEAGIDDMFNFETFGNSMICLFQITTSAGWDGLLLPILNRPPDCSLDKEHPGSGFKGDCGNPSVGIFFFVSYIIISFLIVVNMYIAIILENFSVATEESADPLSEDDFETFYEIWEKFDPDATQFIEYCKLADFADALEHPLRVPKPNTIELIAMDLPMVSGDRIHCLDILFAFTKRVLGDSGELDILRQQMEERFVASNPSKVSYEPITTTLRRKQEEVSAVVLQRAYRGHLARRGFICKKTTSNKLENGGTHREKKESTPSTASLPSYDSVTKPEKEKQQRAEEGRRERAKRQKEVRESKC"}, "NaV1.3": {"target": "NaV1.3 (Homo sapiens, UniProt Q9NY46)"}, "NaV1.1": {"target": "NaV1.1 (Homo sapiens, UniProt P35498)"}},
  "data": [
    {"molecule": "NC1=N[C@H](O)[C@H]2[C@H]3O[C@]4(O)O[C@@H]([C@@H](O)[C@@]2(N1)[C@@H]4O)[C@]3(O)CO", "note": "[TTX, tetrodotoxin]", "values": [
      {"measurement": "IC50", "setting": "NaV1.2", "value": 10, "unit": "nM"},
      {"measurement": "IC50", "setting": "NaV1.8", "value": "> 50000", "unit": "nM"},
      {"measurement": "IC50", "setting": "NaV1.9", "value": 1000, "unit": "nM"},
      {"measurement": "IC50", "setting": "NaV1.6", "value": 6, "unit": "nM"},
      {"measurement": "IC50", "setting": "NaV1.3", "value": 15, "unit": "nM"},
      {"measurement": "IC50", "setting": "NaV1.1", "value": 10, "unit": "nM"}
    ]}
  ]
}
